The values below come from patent publication US9492462B2, “Composition for elastin production” (HUMAN MATRIX SCIENCES, LLC, priority 2007, dated 2016).

Holding throughout (format): cell-based, human
For test [1], the system named is fibroblasts derived from dermal scar tissue. The experiment in a line: [3H]-valine incorporation into insoluble elastin, dermal scar fibroblasts. As to conditions: 50 nM aldosterone alone or with 2 μM spironolactone. How it is done:
Biological effects of aldosterone and spironolactone were tested in cultures of dermal fibroblasts derived from normal skin, stretch-marked skin and dermal scars derived from Caucasian females, of different ages ranging from 30-38 years old. All fibroblasts were originally isolated by allowing them to migrate out of skin explants and then passaged by trypsinization and maintained in alpha-minimum essential medium supplemented with 20 mM Hepes, 1% antibiotics and antimycotics, 1% L-Glutamate and 2% fetal bovine serum (FBS) as previously described Hinek et al. “Impaired elastic-fiber assembly by fibroblasts from patients with either Morquio B disease or infantile GM1-gangliosidosis is linked to deficiency in the 67-kD spliced variant of beta-galactosidase.” Am J Hum Genet. 2000 July; 67(1):23-36 hereby incorporated by reference in its entirety. […]
Quintuplicate, 4 day-old cultures of dermal fibroblasts maintained in the presence and absence of indicated reagents were additionally exposed for the 3 following days to 20 μCi [^3H]-valine. […] The resulting pellets containing the insoluble elastin were then solubilized by boiling in 200 μl of 5.7 N HCl for 1 hour, and the aliquots were mixed in scintillation fluid and counted. […] Final results reflecting amounts of metabolically labeled insoluble elastin in individual cultures were normalized per their DNA content, and expressed as CPM/1 μg DNA.

In test [2] the test system is fibroblasts derived from patient with stretch marks. The experiment in a line: [3H]-valine incorporation into insoluble elastin, stretch-mark fibroblasts. As to conditions: 50 nM aldosterone alone or with 2 μM spironolactone.
Protocol: Biological effects of aldosterone and spironolactone were tested in cultures of dermal fibroblasts derived from normal skin, stretch-marked skin and dermal scars derived from Caucasian females, of different ages ranging from 30-38 years old. All fibroblasts were originally isolated by allowing them to migrate out of skin explants and then passaged by trypsinization and maintained in alpha-minimum essential medium supplemented with 20 mM Hepes, 1% antibiotics and antimycotics, 1% L-Glutamate and 2% fetal bovine serum (FBS) as previously described Hinek et al. “Impaired elastic-fiber assembly by fibroblasts from patients with either Morquio B disease or infantile GM1-gangliosidosis is linked to deficiency in the 67-kD spliced variant of beta-galactosidase.” Am J Hum Genet. […] In all experiments, consecutive passages 3-4 were tested. […] The resulting pellets containing the insoluble elastin were then solubilized by boiling in 200 μl of 5.7 N HCl for 1 hour, and the aliquots were mixed in scintillation fluid and counted. […] Final results reflecting amounts of metabolically labeled insoluble elastin in individual cultures were normalized per their DNA content, and expressed as CPM/1 μg DNA.
Test [3] relates to normal skin fibroblasts. Nature of the test: Elastin immunostaining in 7-day cultures of normal skin fibroblasts. As to conditions: 7-day cultures. Here is the method:
(§1) Biological effects of aldosterone and spironolactone were tested in cultures of dermal fibroblasts derived from normal skin, stretch-marked skin and dermal scars derived from Caucasian females, of different ages ranging from 30-38 years old. All fibroblasts were originally isolated by allowing them to migrate out of skin explants and then passaged by trypsinization and maintained in alpha-minimum essential medium supplemented with 20 mM Hepes, 1% antibiotics and antimycotics, 1% L-Glutamate and 2% fetal bovine serum (FBS) as previously described Hinek et al. “Impaired elastic-fiber assembly by fibroblasts from patients with either Morquio B disease or infantile GM1-gangliosidosis is linked to deficiency in the 67-kD spliced variant of beta-galactosidase.” Am J Hum Genet. 2000 July; 67(1):23-36 hereby incorporated by reference in its entirety. In all experiments, consecutive passages 3-4 were tested. Cells were densely plated (50×10^5 cells/dish) to reach confluency and then cultured for 7 days in the presence and absence of different concentrations of (10 nM-1 μM) aldosterone, 2 μM spironolactone, alone or in combinations with other reagents, as described in figure legends.
7-day-old cultures of fibroblasts, which produce abundant ECM, were assessed. All cultures were fixed in cold 100% methanol at −20° C. for 30 min, and then incubated for 1 hour with 2 μg/ml of polyclonal antibody to tropoelastin. Cultures were then incubated for an additional hour with appropriate fluorescein-conjugated secondary antibody (GAR-FITC). Nuclei were counterstained with propidium iodide. Morphometric analysis of five separate cultures in each experimental group, immunostained with antibodies recognizing extracellular matrix components, was performed using a computerized video analysis system (Image-Pro Plus software 3.0, Media Cybernetics, Silver Spring, Md.) as described previously in Hinek et al. “Decreased elastin deposition and high proliferation of fibroblasts from Costello syndrome are related to functional deficiency in the 67-kD elastin-binding protein.” Am J Hum Genet. 2000 March; 66(3):859-72 and Hinek and Wilson, “Impaired elastogenesis in Hurler disease: dermatan sulfate accumulation linked to deficiency in elastin-binding protein and elastic fiber assembly.” Am J Pathol. 2000 March; 156(3):925-38 both of which are hereby incorporated by reference in their entireties.

For test [4], the system named is normal skin fibroblasts. Nature of the test: [3H]-valine incorporation into insoluble elastin, normal skin fibroblasts. As to conditions: 50 ng/ml IGF-I, 50 nM aldosterone, alone or in combination. How it is done: as §1
Quintuplicate, 4 day-old cultures of dermal fibroblasts maintained in the presence and absence of indicated reagents were additionally exposed for the 3 following days to 20 μCi [^3H]-valine. At the end of incubation period, the cell layers were extensively washed with PBS, scraped and boiled in 500 μl of 0.1 N NaOH for 30 minutes, to solubilize all matrix components except elastin. The resulting pellets containing the insoluble elastin were then solubilized by boiling in 200 μl of 5.7 N HCl for 1 hour, and the aliquots were mixed in scintillation fluid and counted. Aliquots taken from each culture were also used for DNA determination, according to Rodems et al., using the DNeasy Tissue System from Qiagen. Final results reflecting amounts of metabolically labeled insoluble elastin in individual cultures were normalized per their DNA content, and expressed as CPM/1 μg DNA.

The subject of test [5] is fibroblasts derived from patient with stretch marks. Nature of the test: Elastin immunostaining in 7-day cultures of fibroblasts from a patient with stretch marks. To be noted: 50 nM aldosterone alone or with 2 μM spironolactone; vs untreated control or spironolactone only. Here is the method: Biological effects of aldosterone and spironolactone were tested in cultures of dermal fibroblasts derived from normal skin, stretch-marked skin and dermal scars derived from Caucasian females, of different ages ranging from 30-38 years old. All fibroblasts were originally isolated by allowing them to migrate out of skin explants and then passaged by trypsinization and maintained in alpha-minimum essential medium supplemented with 20 mM Hepes, 1% antibiotics and antimycotics, 1% L-Glutamate and 2% fetal bovine serum (FBS) as previously described Hinek et al. “Impaired elastic-fiber assembly by fibroblasts from patients with either Morquio B disease or infantile GM1-gangliosidosis is linked to deficiency in the 67-kD spliced variant of beta-galactosidase.” Am J Hum Genet. 2000 July; 67(1):23-36 hereby incorporated by reference in its entirety. In all experiments, consecutive passages 3-4 were tested. Cells were densely plated (50×10^5 cells/dish) to reach confluency and then cultured for 7 days in the presence and absence of different concentrations of (10 nM-1 μM) aldosterone, 2 μM spironolactone, alone or in combinations with other reagents, as described in figure legends. 7-day-old cultures of fibroblasts, which produce abundant ECM, were assessed. […]

The test system of test [6] is skin biopsy explants from abdominal stretch marks. Nature of the test: Organ culture of stretch-marked skin explants, Movat's pentachrome stain. As to conditions: 10 days, 50 nM aldosterone alone or with 2 μM spironolactone. How it is done: In order to further test whether aldosterone and spironolactone would penetrate into skin tissue and affect elastogenesis, fragments of normal skin, stretch-marked skin and dermal scars were tested in organ culture system. Skin fragments were cut into multiple 1 mm^2 pieces and placed on top of metal grids immersed in culture medium containing 5% FBS and maintained for 10 days in the presence and absence of and then cultured for 7 days in the presence of 50 nM aldosterone, and 2 μM spironolactone, alone or in combinations, as described in figure legends. The media were changed every second day. All organ cultures were fixed in 1% buffered formalin and their transversal serial histological sections were stained with Movat's pentachrome as previously described in Hinek et al. “Proteolytic digest derived from bovine Ligamentum Nuchae stimulates deposition of new elastin-enriched matrix in cultures and transplants of human dermal fibroblasts” J Dermatol Sci. September 2005; 39(3):155-66 hereby incorporated by reference in it's entirety. Morphometric analysis was performed as described above. In each analyzed group (three explants from each patient) low-power fields (1 mm^2) of 20 serial sections stained with Movat's pentachrome were analyzed and all structures stained black (elastic fibers) were counted.

For `C[C@]12CCC(=O)C=C1CC[C@@H]1[C@@H]2[C@@H](O)C[C@]2(C=O)[C@@H](C(=O)CO)CC[C@@H]12` [aldosterone], the “deposition of insoluble mature elastin ([3H]-valine incorporation)” value in test [1] was “enhanced”. The “concentration of mature, insoluble elastin ([3H]-valine incorporation)” value in test [2] is reported as “increased”. Besides, in the test on normal skin fibroblasts [3] (10 nM, 50 nM, 1 μM aldosterone vs untreated), the “concentration of elastin (anti-elastin immunostaining)” value is “increased in an aldosterone concentration specific manner”. Moreover, in the test with normal skin fibroblasts [3] (50 ng/ml IGF-I, 50 nM aldosterone, alone or together, vs untreated control), the “deposition of elastin (anti-elastin immunostaining)” value is “enhanced deposition of elastin”. Besides, the “mature, insoluble elastin concentration ([3H]-valine incorporation)” value in the test with normal skin fibroblasts [4] was “improved mature elastin concentrations over untreated control”. Further, in test [5], the “elastin stained by anti-elastin antibodies” value was “increase in elastin”. Besides, the “elastic fibers / deposition of elastin (Movat's pentachrome)” value in test [6] was “thicker and longer elastic fibers”.
